# Results taken from ChEMBL document CHEMBL6096664, “Discovery of novel KSP-targeting PROTACs with potent antitumor effects in vitro and in vivo” (Eur J Med Chem, 2025).
# Experiments:
# MCF7 = experiment: Antiproliferative activity against human MCF7 cells assessed as inhibition of cell proliferation measured after 72 hrs by CCK8 assay; format: functional, cell-based; details: MCF7, 72 h
# [1] = target: T1, Protein cereblon/Kinesin-like protein KIF11 (Homo sapiens, UniProt P52732+Q96SW2); experiment: PROTAC activity at CRBN/KSP in human HCT-116 cells assessed as induction of KSP degradation incubated for 48 hrs by Western blot analysis; format: cell-based
# HCT-116 [2] = experiment: Induction of cell cycle arrest in human HCT-116 cells assessed as accumulation of cells at G1 phase at 100 nM incubated for 24 hrs by RNase A/propidium iodide staining based flow cytometric analysis (reference value: 93.11 %); format: functional
# [3] = target: T1, Protein cereblon/Kinesin-like protein KIF11; experiment: PROTAC activity at CRBN/KSP in human HCT-116 cells assessed as induction of KSP degradation at 200 nM pretreated with MLN4924 for 2 hrs followed by compound addition for 24 hrs by Western blot analysis; format: cell-based
# Target sequence in this assay (P52732 whole entry, looked up): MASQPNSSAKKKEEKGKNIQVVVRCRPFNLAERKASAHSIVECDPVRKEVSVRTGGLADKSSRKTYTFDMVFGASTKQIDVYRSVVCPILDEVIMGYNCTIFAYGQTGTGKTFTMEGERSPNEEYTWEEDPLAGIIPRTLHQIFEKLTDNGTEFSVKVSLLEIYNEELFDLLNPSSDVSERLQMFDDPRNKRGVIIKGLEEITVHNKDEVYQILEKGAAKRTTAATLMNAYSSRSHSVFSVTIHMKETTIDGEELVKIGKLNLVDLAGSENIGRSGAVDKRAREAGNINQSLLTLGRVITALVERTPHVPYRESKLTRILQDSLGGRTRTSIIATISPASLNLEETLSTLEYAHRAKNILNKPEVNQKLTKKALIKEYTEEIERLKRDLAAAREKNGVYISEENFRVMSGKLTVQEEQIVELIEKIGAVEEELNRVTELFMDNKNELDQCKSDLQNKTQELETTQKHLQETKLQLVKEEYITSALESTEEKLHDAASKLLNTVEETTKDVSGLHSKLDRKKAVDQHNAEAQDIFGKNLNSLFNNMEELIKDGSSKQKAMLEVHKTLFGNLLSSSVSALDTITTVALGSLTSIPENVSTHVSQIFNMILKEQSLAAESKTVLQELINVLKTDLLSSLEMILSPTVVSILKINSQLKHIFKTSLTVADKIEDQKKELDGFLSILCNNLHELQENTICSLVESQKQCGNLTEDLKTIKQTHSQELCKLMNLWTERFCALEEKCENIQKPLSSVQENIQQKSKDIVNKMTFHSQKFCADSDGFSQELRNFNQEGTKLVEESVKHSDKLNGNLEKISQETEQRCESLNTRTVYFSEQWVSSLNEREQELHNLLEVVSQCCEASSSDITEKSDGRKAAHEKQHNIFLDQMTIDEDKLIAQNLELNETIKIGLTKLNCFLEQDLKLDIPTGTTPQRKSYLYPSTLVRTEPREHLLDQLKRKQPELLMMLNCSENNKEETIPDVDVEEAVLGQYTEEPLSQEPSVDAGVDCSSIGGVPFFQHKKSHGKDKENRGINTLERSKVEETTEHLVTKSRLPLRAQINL
# Target sequence in this assay (Q96SW2 whole entry, looked up): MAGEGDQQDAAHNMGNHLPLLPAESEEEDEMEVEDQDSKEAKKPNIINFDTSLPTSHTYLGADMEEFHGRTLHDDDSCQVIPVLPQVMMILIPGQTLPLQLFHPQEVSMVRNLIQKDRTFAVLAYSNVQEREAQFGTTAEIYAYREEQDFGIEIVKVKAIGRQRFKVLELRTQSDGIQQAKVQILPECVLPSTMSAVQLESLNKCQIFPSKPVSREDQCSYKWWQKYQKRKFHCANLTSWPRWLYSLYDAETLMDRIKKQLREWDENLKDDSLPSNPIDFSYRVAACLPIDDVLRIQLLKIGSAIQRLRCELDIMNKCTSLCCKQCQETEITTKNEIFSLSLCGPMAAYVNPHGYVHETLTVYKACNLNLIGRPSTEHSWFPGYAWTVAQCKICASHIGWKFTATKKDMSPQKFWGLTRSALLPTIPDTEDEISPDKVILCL
# HCT-116 [4] = experiment: Induction of cell cycle arrest in human HCT-116 cells assessed as accumulation of cells at G2/M phase at 10 nM incubated for 24 hrs by RNase A/propidium iodide staining based flow cytometric analysis (reference value: 4.05 %); format: functional
# HCT-116 [5] = experiment: Antitumor activity against human HCT-116 cells xenografted in female BALB/c nu/nu mouse assessed as reduction in tumor weight at 7.5 mg/kg, ip measured every 2 days for 14 days relative to control; format: functional; parameters: scale not given: the % may be the effect or the level left; details: time 14 day
# HCT-116 [6] = experiment: Induction of cell cycle arrest in human HCT-116 cells assessed as accumulation of cells at S phase at 10 nM incubated for 24 hrs by RNase A/propidium iodide staining based flow cytometric analysis (reference value: 2.84 %); format: functional
# HCT-116 [7] = experiment: Induction of apoptosis in human HCT-116 cells assessed as viable cells at 100 nM incubated for 48 hrs by Annexin V-FITC/PI staining based flow cytometry analysis (reference value: 94.31 %); format: functional; details: read-out: Activity
# HCT-116 [8] = experiment: Induction of apoptosis in human HCT-116 cells assessed as necrotic cells at 10 nM incubated for 48 hrs by Annexin V-FITC/PI staining based flow cytometry analysis (reference value: 1.31 %); format: functional
structure (smiles),measurement,setting,value
COc1ccc(C2(SC[C@H](N)C(=O)NCCCCCCCCNC(=O)COc3cccc4c3C(=O)N(C3CCC(=O)NC3=O)C4=O)c3ccccc3C=Cc3ccccc32)cc1 (stereo not given in full),IC50,MCF7,424 nM
same,Activity,[1],Dose-dependent-effect
same,DC50,[1],115 nM
same,Activity,HCT-116 [2],9.98%
same,Activity,[3],Not active; Compound Induced Ksp Degradation In Mediated Through Ubiquitin-Proteosome System
same,Activity,HCT-116 [4],14.79%
same,Activity,HCT-116 [5],97%
same,Activity,HCT-116 [6],9.87%
same,viability at 0.1 µM,HCT-116 [7],29.1%
same,Activity,HCT-116 [8],13.67%
